Converted amounts (≈) assume the structure as drawn.
Tests used:
[1] = test system: Aspergillus fumigatus; experiment: Antifungal activity against Aspergillus fumigatus MTCC 3008 after 24 to 48 hrs by broth microdilution method; format: functional
[2] = test system: Schizosaccharomyces pombe; experiment: Toxicity in Schizosaccharomyces pombe Var. Paul Linder 3360 assessed as dead cells at 2.5 to 12.5 ug/ml after 17 hrs by trypan blue dye-based microscopic method
[3] = test system: Streptococcus pneumoniae; experiment: Antibacterial activity against Streptococcus pneumoniae MTCC 1936 after 24 to 48 hrs by broth microdilution method; format: functional
[4] = test system: Bacillus subtilis; experiment: Antibacterial activity against Bacillus subtilis MTCC 441 after 24 to 48 hrs by broth microdilution method; format: functional
[5] = test system: Escherichia coli; experiment: Antibacterial activity against Escherichia coli MTCC 443 after 24 to 48 hrs by broth microdilution method; format: functional
[6] = test system: Salmonella typhi; experiment: Antibacterial activity against Salmonella typhi MTCC 98 after 24 to 48 hrs by broth microdilution method; format: functional, Salmonella enterica subsp. enterica serovar Typhi; settings: Salmonella enterica
[7] = test system: Clostridium tetani; experiment: Antibacterial activity against Clostridium tetani MTCC 449 after 24 to 48 hrs by broth microdilution method; format: functional
[8] = test system: Vibrio cholerae; experiment: Antibacterial activity against Vibrio cholerae MTCC 3906 after 24 to 48 hrs by broth microdilution method; format: functional
[9] = test system: Candida albicans; experiment: Antifungal activity against Candida albicans MTCC 227 after 24 to 48 hrs by broth microdilution method; format: functional

Cc1ccc2nc(N3CCOCC3)c(-c3noc(-c4ccc(C(F)(F)F)cc4)n3)cc2c1
MIC [1]: 1140 µM (≈ 500 µg/mL)
Activity [2]: Non-Toxic
MIC [3]: 454 µM (≈ 200 µg/mL)
MIC [4]: 454 µM (≈ 200 µg/mL)
MIC [5]: 227 µM (≈ 100 µg/mL)
MIC [6]: 454 µM (≈ 200 µg/mL)
MIC [7]: 568 µM (≈ 250 µg/mL)
MIC [8]: 227 µM (≈ 100 µg/mL)
MIC [9]: 568 µM (≈ 250 µg/mL)

Brc1ccc(-c2nc(-c3cc4ccccc4nc3N3CCOCC3)no2)cc1
MIC [1]: 2290 µM (≈ 1000 µg/mL)
Activity [2]: Non-Toxic
MIC [3]: 286 µM (≈ 125 µg/mL)
MIC [4]: 457 µM (≈ 200 µg/mL)
MIC [5]: 572 µM (≈ 250 µg/mL)
MIC [6]: 228 µM (≈ 99.7 µg/mL)
MIC [7]: 572 µM (≈ 250 µg/mL)
MIC [8]: 228 µM (≈ 99.7 µg/mL)
MIC [9]: 1120 µM (≈ 488 µg/mL)

Cc1ccc2nc(N3CCOCC3)c(-c3noc(-c4ccc(Br)cc4)n3)cc2c1
MIC [1]: 1110 µM (≈ 500 µg/mL)
MIC [3]: 221 µM (≈ 99.7 µg/mL)
MIC [4]: 1110 µM (≈ 500 µg/mL)
MIC [5]: 138 µM (≈ 62.3 µg/mL)
MIC [6]: 443 µM (≈ 200 µg/mL)
MIC [7]: 221 µM (≈ 99.7 µg/mL)
MIC [8]: 554 µM (≈ 250 µg/mL)
MIC [9]: 2340 µM (≈ 1060 µg/mL)

Cc1ccc2nc(N3CCOCC3)c(-c3noc(-c4cccc(C(F)(F)F)c4)n3)cc2c1
MIC [1]: 1140 µM (≈ 500 µg/mL)
Activity [2]: Non-Toxic
MIC [3]: 227 µM (≈ 100 µg/mL)
MIC [4]: 568 µM (≈ 250 µg/mL)
MIC [5]: 454 µM (≈ 200 µg/mL)
MIC [6]: 568 µM (≈ 250 µg/mL)
MIC [7]: 1140 µM (≈ 500 µg/mL)
MIC [8]: 568 µM (≈ 250 µg/mL)
MIC [9]: 2270 µM (≈ 1000 µg/mL)

Cc1ccc2nc(N3CCOCC3)c(-c3noc(-c4ccc(Cl)cc4)n3)cc2c1
MIC [1]: 246 µM (≈ 100 µg/mL)
Activity [2]: Toxic
MIC [3]: 246 µM (≈ 100 µg/mL)
MIC [4]: 153 µM (≈ 62.3 µg/mL)
MIC [5]: 153 µM (≈ 62.3 µg/mL)
MIC [6]: 246 µM (≈ 100 µg/mL)
MIC [7]: 200 µM (≈ 81.4 µg/mL)
MIC [8]: 153 µM (≈ 62.3 µg/mL)
MIC [9]: 246 µM (≈ 100 µg/mL)

O=[N+]([O-])c1ccc(-c2nc(-c3cc4ccccc4nc3N3CCOCC3)no2)cc1
MIC [1]: 248 µM (≈ 100 µg/mL)
Activity [2]: Toxic
MIC [3]: 248 µM (≈ 100 µg/mL)
MIC [4]: 155 µM (≈ 62.5 µg/mL)
MIC [5]: 620 µM (≈ 250 µg/mL)
MIC [6]: 155 µM (≈ 62.5 µg/mL)
MIC [7]: 155 µM (≈ 62.5 µg/mL)
MIC [8]: 620 µM (≈ 250 µg/mL)
MIC [9]: 1130 µM (≈ 456 µg/mL)

COc1ccc(-c2nc(-c3cc4cc(C)ccc4nc3N3CCOCC3)no2)cc1
MIC [1]: 2490 µM (≈ 1000 µg/mL)
MIC [3]: 310 µM (≈ 125 µg/mL)
MIC [4]: 621 µM (≈ 250 µg/mL)
MIC [5]: 497 µM (≈ 200 µg/mL)
MIC [6]: 248 µM (≈ 99.8 µg/mL)
MIC [7]: 621 µM (≈ 250 µg/mL)
MIC [8]: 497 µM (≈ 200 µg/mL)
MIC [9]: 1240 µM (≈ 500 µg/mL)

Clc1ccc(-c2nc(-c3cc4ccccc4nc3N3CCOCC3)no2)cc1
MIC [1]: 255 µM (≈ 100 µg/mL)
Activity [2]: Toxic
MIC [3]: 159 µM (≈ 62.5 µg/mL)
MIC [4]: 255 µM (≈ 100 µg/mL)
MIC [5]: 510 µM (≈ 200 µg/mL)
MIC [6]: 255 µM (≈ 100 µg/mL)
MIC [7]: 159 µM (≈ 62.5 µg/mL)
MIC [8]: 255 µM (≈ 100 µg/mL)
MIC [9]: 637 µM (≈ 250 µg/mL)

O=C(N[C@H](CO)[C@H](O)c1ccc([N+](=O)[O-])cc1)C(Cl)Cl [CHLORAMPHENICOL]
MIC [3]: 150 µM (≈ 48.5 µg/mL)
MIC [4]: 150 µM (≈ 48.5 µg/mL)
MIC [5]: 75 µM (≈ 24.2 µg/mL)
MIC [6]: 75 µM (≈ 24.2 µg/mL)
MIC [7]: 301 µM (≈ 97.3 µg/mL)
MIC [8]: 75 µM (≈ 24.2 µg/mL)

FC(F)(F)c1ccc(-c2nc(-c3cc4ccccc4nc3N3CCOCC3)no2)cc1
MIC [1]: 146 µM (≈ 62.3 µg/mL)
MIC [3]: 146 µM (≈ 62.3 µg/mL)
MIC [4]: 146 µM (≈ 62.3 µg/mL)
MIC [5]: 586 µM (≈ 250 µg/mL)
MIC [6]: 146 µM (≈ 62.3 µg/mL)
MIC [7]: 146 µM (≈ 62.3 µg/mL)
MIC [8]: 586 µM (≈ 250 µg/mL)
MIC [9]: 2350 µM (≈ 1000 µg/mL)

COc1ccc(-c2nc(-c3cc4ccccc4nc3N3CCOCC3)no2)cc1
MIC [1]: 2580 µM (≈ 1000 µg/mL)
Activity [2]: Non-Toxic
MIC [3]: 1290 µM (≈ 500 µg/mL)
MIC [4]: 257 µM (≈ 99.8 µg/mL)
MIC [5]: 257 µM (≈ 99.8 µg/mL)
MIC [6]: 515 µM (≈ 200 µg/mL)
MIC [7]: 1290 µM (≈ 500 µg/mL)
MIC [8]: 644 µM (≈ 250 µg/mL)
MIC [9]: 2580 µM (≈ 1000 µg/mL)

O=C(O)c1cn(C2CC2)c2cc(N3CCNCC3)c(F)cc2c1=O [CIPROFLOXACIN]
MIC [3]: 31 µM (≈ 10.3 µg/mL)
MIC [4]: 310 µM (≈ 103 µg/mL)
MIC [5]: 31 µM (≈ 10.3 µg/mL)
MIC [6]: 31 µM (≈ 10.3 µg/mL)
MIC [8]: 31 µM (≈ 10.3 µg/mL)

c1ccc(-c2nc(-c3cc4ccccc4nc3N3CCOCC3)no2)cc1
MIC [1]: 1400 µM (≈ 500 µg/mL)
MIC [3]: 698 µM (≈ 250 µg/mL)
MIC [4]: 1400 µM (≈ 500 µg/mL)
MIC [5]: 279 µM (≈ 100 µg/mL)
MIC [6]: 1400 µM (≈ 500 µg/mL)
MIC [7]: 1400 µM (≈ 500 µg/mL)
MIC [8]: 1400 µM (≈ 500 µg/mL)
MIC [9]: 2790 µM (≈ 1000 µg/mL)

Cc1ccc2nc(N3CCOCC3)c(-c3noc(-c4ccc([N+](=O)[O-])cc4)n3)cc2c1
MIC [1]: 1200 µM (≈ 500 µg/mL)
Activity [2]: Toxic
MIC [3]: 149 µM (≈ 62.2 µg/mL)
MIC [4]: 239 µM (≈ 99.8 µg/mL)
MIC [5]: 239 µM (≈ 99.8 µg/mL)
MIC [6]: 599 µM (≈ 250 µg/mL)
MIC [7]: 149 µM (≈ 62.2 µg/mL)
MIC [8]: 239 µM (≈ 99.8 µg/mL)
MIC [9]: 1140 µM (≈ 476 µg/mL)

NYSTATIN
MIC [1]: 107 µM
MIC [9]: 107 µM

Cc1ccc2nc(N3CCOCC3)c(-c3noc(-c4ccccc4)n3)cc2c1
MIC [1]: 1340 µM (≈ 501 µg/mL)
MIC [3]: 672 µM (≈ 250 µg/mL)
MIC [4]: 1340 µM (≈ 501 µg/mL)
MIC [5]: 672 µM (≈ 250 µg/mL)
MIC [6]: 1340 µM (≈ 501 µg/mL)
MIC [7]: 268 µM (≈ 99.8 µg/mL)
MIC [8]: 268 µM (≈ 99.8 µg/mL)
MIC [9]: 2690 µM (≈ 1000 µg/mL)

CCn1cc(C(=O)O)c(=O)c2cc(F)c(N3CCNCC3)cc21 [NORFLOXACIN]
MIC [3]: 154 µM (≈ 49.2 µg/mL)
MIC [4]: 154 µM (≈ 49.2 µg/mL)
MIC [5]: 154 µM (≈ 49.2 µg/mL)
MIC [6]: 154 µM (≈ 49.2 µg/mL)
MIC [7]: 154 µM (≈ 49.2 µg/mL)
MIC [8]: 154 µM (≈ 49.2 µg/mL)

CC1(C)S[C@@H]2[C@H](NC(=O)[C@H](N)c3ccccc3)C(=O)N2[C@H]1C(=O)O [AMPICILLIN]
MIC [3]: 286 µM (≈ 99.9 µg/mL)
MIC [4]: 715 µM (≈ 250 µg/mL)
MIC [5]: 286 µM (≈ 99.9 µg/mL)
MIC [6]: 286 µM (≈ 99.9 µg/mL)
MIC [7]: 715 µM (≈ 250 µg/mL)
MIC [8]: 286 µM (≈ 99.9 µg/mL)

COC1=CC(=O)C[C@@H](C)[C@]12Oc1c(Cl)c(OC)cc(OC)c1C2=O [GRISEOFULVIN]
MIC [1]: 283 µM (≈ 99.8 µg/mL)
MIC [9]: 1150 µM (≈ 405 µg/mL)

FC(F)(F)c1cccc(-c2nc(-c3cc4ccccc4nc3N3CCOCC3)no2)c1
MIC [1]: 234 µM (≈ 99.8 µg/mL)
MIC [3]: 234 µM (≈ 99.8 µg/mL)
MIC [4]: 234 µM (≈ 99.8 µg/mL)
MIC [5]: 234 µM (≈ 99.8 µg/mL)
MIC [6]: 146 µM (≈ 62.3 µg/mL)
MIC [7]: 469 µM (≈ 200 µg/mL)
MIC [8]: 234 µM (≈ 99.8 µg/mL)
MIC [9]: 1130 µM (≈ 482 µg/mL)

From ChEMBL document CHEMBL4000181, “Synthesis and biological screening of novel 2-morpholinoquinoline nucleus clubbed with 1,2,4-oxadiazole motifs” (Eur J Med Chem, 2017)
